Laboratory results: patent US20200239597A1, “AN ANTI-APOPTOTIC FUNCTION OF PKM2 AND INTRACELLULARLY EXPRESSED SCFV ANTIBODIES” (La Jolla Institute for Allergy and Immunology, priority 2017, published 2020)

B1: IB12: intrabody clone (scFv) that pulls down PKM2, SEQ ID NO: 1 (protein)
scFv: MAQVQLVQSGGGLVKPGGSLRLSCTASGFTFSTYWMHWFRQAPGKGLLWVSRINPDGSATIYADSVKGRFTISRDNAKNSLYLQMNSLRDEDTAVYYCARGHPLSGYPGYFDYWGQGTLVTVSSGGGGSGGGGSGVADPRLCSLSRLPSLHLLEHQQSHLHFTSGINVGAYRIYWYQQKPGSPPQFLLRYKSDSDKQQGSGVPSRFSGSRDASANAGILLISGLRSEDEADYYCAIWHSSAWVFGGGTKLTVLWGSGLASVDYKDDDDK
modifications: Artificial intrabody clone 12
B2: monovalent scFv 5 produced as recombinant protein in E. coli (scFv)
scFv: MAQVQLVETGPGLVKPSETLSLRCTVSGGSFDNYYWNWIRQPPGKGLEYIGYVFPSTGATNYNPSLGSRVTISLDTSKNQFSLTLTSVTTADTAIYYCVRSGHDLWTGSTWFDPWGQWTTVTVSSGGGGSGGGGSGGGGSEIVLTQSPGTLSLSPGERATLSCRASQSVSSSYLAWYQQKPGQAPRLLIYGASSRATGIPDRFSGSGSGTDFTLTISRLEPEDIAVYYCQQRSNWPRTFGQGTKVEIKRGLGGLASVDYKDDDDK
notes: also called purified scFv 5; recombinant scFv 5
B3: Clone 7: independent scFv isolate with DNA sequence identical to scFv 5 (protein)
scFv: MAQVQLVETGPGLVKPSETLSLRCTVSGGSFDNYYWNWIRQPPGKGLEYIGYVFPSTGATNYNPSLGSRVTISLDTSKNQFSLTLTSVTTADTAIYYCVRSGHDLWTGSTWFDPWGQWTTVTVSSGGGGSGGGGSGGGGSEIVLTQSPGTLSLSPGERATLSCRASQSVSSSYLAWYQQKPGQAPRLLIYGASSRATGIPDRFSGSGSGTDFTLTISRLEPEDIAVYYCQQRSNWPRTFGQGTKVEIKRGLGGLASVDYKDDDDK

Key:
[1] = tested on: 293T cells; test: Clonogenic survival assay after BimS transfection, 293T cells; type: cell-based, human; parameters: protection of cells from BimS-induced death by the compound alone: dose or concentration left out as unconfirmed; conditions: DASA-58 not shown; for effect on the pro-survival effect of IB5 expression: 293T cells cultured in the presence of the compound; for protection of cells from BimS-induced death by the compound alone: without IB5
Experimental: Control 293T or IB5-expressing cells were incubated with or without 27 µg/ml TEPP-46 for 3 h, then transfected with BimS cDNA in a further 24-h incubation also including TEPP-46 or vehicle. The plates were fixed and stained with crystal violet after 1 week. The total area of colonies (a measure of the total mass of proliferating cells) formed in each well from were quantified using ImageJ software; mean±SEM are shown from 3 independent experiments.
Cell viability was measured with a Countess™ Automated Cell Counter (Invitrogen) using trypan blue. For the clonogenic survival assay, 293T or MEFs cells were seeded in 6-well plates at 1×10^5 cells/well in a 2-ml volume, transfected with BimS cDNA and incubated for 24 h. Afterwards, the medium was replaced and the cells cultured for 3-4 days. Thereafter, the plates were rinsed with PBS and fixed and stained with a solution containing crystal violet (0.5% w/v) and glutaraldehyde (6% v/v) as described (Franken et al., 2006).

[2] = molecular target: T1, WT PKM2 (Homo sapiens, UniProt P14618); test: Pyruvate kinase assay (Kinase-Glo Plus), WT PKM2; type: biochemical; conditions: PKM2 at 50 nM; ADP and PEP as substrates
T1 construct: His (N); made in house; host or cells: Escherichia coli BL21(DE3)
T1 sequence (P14618 whole entry): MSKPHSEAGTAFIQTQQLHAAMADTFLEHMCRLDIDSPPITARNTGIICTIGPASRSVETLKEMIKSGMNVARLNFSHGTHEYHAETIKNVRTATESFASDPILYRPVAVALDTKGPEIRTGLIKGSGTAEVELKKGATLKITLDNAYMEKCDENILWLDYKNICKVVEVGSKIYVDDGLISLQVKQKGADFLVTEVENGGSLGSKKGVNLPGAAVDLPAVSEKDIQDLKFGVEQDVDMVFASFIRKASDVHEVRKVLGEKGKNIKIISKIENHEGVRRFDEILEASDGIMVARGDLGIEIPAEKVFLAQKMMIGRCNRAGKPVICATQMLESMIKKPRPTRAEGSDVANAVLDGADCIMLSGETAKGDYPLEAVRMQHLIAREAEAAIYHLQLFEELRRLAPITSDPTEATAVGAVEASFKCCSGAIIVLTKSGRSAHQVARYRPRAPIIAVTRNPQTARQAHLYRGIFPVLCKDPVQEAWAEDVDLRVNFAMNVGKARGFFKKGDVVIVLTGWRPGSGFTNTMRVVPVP
Experimental: Activity was measured by Kinase-Glo® Plus Luminescent Kinase Assay kit (promega), using ADP and PEP as substrates), with PKM2 at 50 nM. Shown are values with the basal activity of PKM2 alone subtracted out.
Pyruvate kinase activity was measured by using Kinase-Glo® Plus Luminescent Kinase Assay kit (Promega). 50-100 nM of purified WT or mutant PKM2 was added in 100 μl assay buffer containing 50 mM Tris pH7.5, 100 mM KCl, 10 mM MgCl2, 200 μM PEP, 200 μM ADP, and 3% DMSO. After a 15-min incubation, Kinase-Glo Plus™ reagent (Promega Corporation, Madison, Wis., USA) was added, according to the manufacturer's instructions. In some cases, 0-40 μM fructose 1,6-bisphosphate (FBP) and 0-150 nM scFv 5 were added.

[3] = molecular target: T1, WT PKM2; test: Blue native gel electrophoresis of recombinant proteins, WT PKM2; type: binding; conditions: blue native gel
Experimental: Left: A monovalent form of scFv 5, produced in E. coli, induced tetramer formation in WT PKM2 along with a bandshift whose magnitude was dependent on the input amount of scFv 5. […] Reaction volume was 20 μl.
(§1) Because glucose metabolism can influence cell survival (Fulda and Debatin, 2007; Moley and Mueckler, 2000; Munoz-Pinedo et al., 2012), The present inventors asked whether IB5 could rescue cells simply through stimulating PKM2's glycolytic activity. First, to analyze the antibody's interaction with PKM2, the present inventors produced monovalent scFv 5 and PIKM2 as recombinant proteins in E. coli and analyzed mixtures of these proteins, by blue native gel electrophoresis (FIG. 3A).

[4] = molecular target: T2, PKM2 (K270M) (Homo sapiens, UniProt P14618, K270M); test: Blue native gel electrophoresis, PKM2 (K270M); type: binding; conditions: not shown
T2 construct: His (N); made in house; host or cells: Escherichia coli BL21(DE3)
T2 sequence (P14618 whole entry K270M): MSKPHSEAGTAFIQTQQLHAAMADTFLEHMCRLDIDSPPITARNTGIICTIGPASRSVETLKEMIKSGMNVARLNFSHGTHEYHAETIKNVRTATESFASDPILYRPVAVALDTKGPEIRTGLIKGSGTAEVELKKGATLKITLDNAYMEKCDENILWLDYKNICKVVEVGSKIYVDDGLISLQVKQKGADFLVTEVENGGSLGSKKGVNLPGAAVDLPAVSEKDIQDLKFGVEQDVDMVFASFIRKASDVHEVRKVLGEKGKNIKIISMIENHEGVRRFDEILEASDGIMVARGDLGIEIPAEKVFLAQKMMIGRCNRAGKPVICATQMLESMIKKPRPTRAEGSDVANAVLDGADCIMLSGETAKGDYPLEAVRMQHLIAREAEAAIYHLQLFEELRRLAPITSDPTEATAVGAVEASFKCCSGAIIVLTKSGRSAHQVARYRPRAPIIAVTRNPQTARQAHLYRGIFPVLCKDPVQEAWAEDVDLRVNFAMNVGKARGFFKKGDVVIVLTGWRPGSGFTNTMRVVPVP
Source text: To begin to define the aspects of PKM2 function required for the IB5-induced anti-apoptotic effect, the present inventors reconstituted PKM2-null MEFs with WT or mutant forms of PKM2. The present inventors first analyzed the K270M mutation, reported to be catalytically dead (Bollenbach et al., 1999; Dombrauckas et al., 2005; Luo et al., 2011).

[5] = tested on: Bcl-2 family proteins; test: Immunoblots of Bcl-2 family proteins; type: cell-based, human; conditions: alone or in combination; TEPP-46 27 μM
Experimental: Levels of several Bcl-2 family proteins were unchanged following IB5 expression or incubation with TEPP-46, or both. Cell lysates from 293T cells infected with and without IB5 and incubated with and without TEPP-46 (27 μM) were separated on SDS-12% polyacrylamide gels. Bcl-2 family proteins were detected by immunoblotting. The bands were quantified using ImageJ and normalized to the control cell lysate on the leftmost lane.
293T cells were washed with PBS and lysed with PBS containing 1% NP-40. Protein concentration was determined using Pierce™ BCA reagent (ThermoFisher; 23221, 23224). 35 μg protein was loaded in each lane of 12% SDS-PAGE gels. Proteins were transferred to nitrocellulose membrane and immunoblotted with the following primary antibodies: anti-Bax antibody (Santa Cruz N20), anti-Bak antibody (Cell Signaling 3814), anti-Bid antibody (R&D Systems AF860), anti-Bim antibody (Sigma B7929), anti-Puma antibody (Cell Signaling 4976), anti-Bcl-2 antibody (Abcam 32124), anti-Bcl-xL antibody (Cell Signaling 2764) and anti-Mcl-1 (Santa Cruz S19) at 1:1000 dilution. The secondary anti-rabbit and mouse antibodies, conjugated with HRP, were obtained from Santa Cruz and were used at 1:2000 dilution. The luminescence signal was detected using ECL reagent (ThermoFisher 32106).

[6] = molecular target: T3, pyruvate kinase M2 (PKM2) (Homo sapiens, UniProt P14618); test: Target protein immunoprecipitation (FLAG pull-down, mass spectrometry, immunoblot); type: binding; conditions: Triton X-100 extracts of 293T cells, anti-FLAG beads
T3 construct: some intrabodies precipitated specific cellular proteins; endogenous in cells; host or cells: HEK293T (293T)
T3 sequence (P14618 whole entry): as the sequence (P14618 whole entry) above
Experimental: FIG. 1 C is a photograph of a non-limiting SDS-PAGE gel with silver stain from an immunoprecipitation assay using antibodies encoded by DNA sequences isolated from FIG. 1B. […] Intrabodies that rescued cells from BimS-induced death were chosen for pull-down analysis as described in Methods. Left panel: Triton™-X-100 (1%) cell extracts were incubated with anti-FLAG beads, then proteins eluted with 3×FLAG peptide and separated by SDS-PAGE with silver stain. Specific bands are marked with dots; some bands (e.g. at 37 and 70 kD) are nonspecific. […] The bands near 25 kD are the scFv polypeptides, whose expression levels varied.
Flag-tagged intrabody was introduced along with a tandem Strep-tag by PCR into the same lentiviral vector used for selection. 293T cells infected with the intrabody lentivirus were incubated at 30° C. for 72 h as described above. After washing with cold PBS, 5×10^8 cells were lysed for 15 minutes on ice in lysis buffer (50 mM Tris HCl, pH 7.4, 150 mM NaCl, 1 mM EDTA, 1% Triton™ X-100). Cell lysates were clarified by centrifugation for 15 minutes at 4° C. at 16,000×g. The total protein content of the soluble fraction was quantified using the BCA assay. For pull-down experiments, 10 mg of protein lysate was incubated with 200 al of EZview™ Red anti-FLAG® M2 Affini-ty Gel (Sigma-Aldrich) for 2 h at 4° C. Beads were washed 3 times in wash buffer (50 mM Tris HCl, pH 7.4, 150 mM NaCl, 1 mM EDTA, 0.1% Triton X-100). Elution was performed under native conditions by competition with 3×FLAG peptide following the manufacturer's protocol. Eluates were used for the second step purification using Strep-Tactin Superflow Plus™ [Qiagen], following the manufacturer's instructions. The final two-step purified protein was used for SDS-PAGE analysis. Bands of interest were cut out from the gel and subjected to in-gel digestion with trypsin (Promega, Fitchburg, Wis., USA) followed by MALDI TOF/TOF mass spectrometry analysis (Biomolecular and Proteomics Mass Spectrometry Facility, University of California at San Diego).

[7] = molecular target: T4, recombinant PKM1 (UniProt P14618-2 1-531); test: in vitro experiments with recombinant proteins (blue native gel bandshift; scFv 5 failed to shift PKM1)
T4 construct: Ran as a constitutive tetramer; also called PIKM1; M1 isoform of pyruvate kinase
T4 sequence (P14618 other isoform, or with tags, fused parts or gaps): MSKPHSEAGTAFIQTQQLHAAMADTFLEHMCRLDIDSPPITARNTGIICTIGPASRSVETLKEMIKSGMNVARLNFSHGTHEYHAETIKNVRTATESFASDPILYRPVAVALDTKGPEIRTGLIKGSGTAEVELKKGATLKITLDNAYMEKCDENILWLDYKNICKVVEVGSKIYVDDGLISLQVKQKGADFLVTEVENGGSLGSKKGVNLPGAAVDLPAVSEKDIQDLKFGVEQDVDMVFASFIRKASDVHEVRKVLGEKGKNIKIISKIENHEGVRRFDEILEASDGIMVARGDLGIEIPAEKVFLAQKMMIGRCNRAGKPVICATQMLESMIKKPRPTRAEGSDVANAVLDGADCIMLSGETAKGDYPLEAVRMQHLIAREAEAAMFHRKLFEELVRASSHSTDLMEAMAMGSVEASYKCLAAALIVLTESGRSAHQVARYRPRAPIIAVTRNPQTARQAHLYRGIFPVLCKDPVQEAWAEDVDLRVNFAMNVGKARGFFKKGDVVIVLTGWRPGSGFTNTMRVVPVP
Source text: as §1, with “3A). […] Thus, the intrabody bound directly to PKM2, promoting its stable tetramerization, and moreover, higher input ratios of scFv:PKIM2 produced increased binding stoichiometry.” for “3A).”

Row | Molecule | effect on the pro-survival effect of IB5 expression [1] | protection of cells from BimS-induced death by the compound alone [1] | protein pulled down from cell extracts [6] | also measured
1 | Nc1cccc(S(=O)(=O)N2CCCN(S(=O)(=O)c3ccc4c(c3)OCCO4)CC2)c1 [DASA-58] | enhanced the pro-survival effect of IB5 expression to a modest but statistically significant extent | did not protect cells | – | –
2 | O=C(COP(=O)(O)O)[C@@H](O)[C@H](O)[C@H](O)COP(=O)(O)O [FBP, fructose 1,6-bisphosphate, reference compound] | – | – | – | glycolytic (pyruvate kinase) activity of WT PKM2 [2]: Stimulation of PKM2 activity; tetramer formation of WT PKM2 [3]: produced the tetramer form; stable tetramer formation of PKM2 (K270M) [4]: prevented the protein from forming stable tetramers
3 | Cn1c2cc([S+](C)[O-])sc2c2cnn(Cc3cccc(N)c3)c(=O)c21 (centres unmarked) [TEPP-46] | enhanced the pro-survival effect of IB5 expression to a modest but statistically significant extent | did not protect cells | – | levels of Bax, Bak, Bid, Bim, Puma, Bcl-2, Bcl-xL and Mcl-1 [5]: failed to change the mitochondrial levels
4 | B1 | – | – | pulled down a 55-kD protein now identified as pyruvate kinase M2 | –
5 | B2 | – | – | – | binding result [7]: no binding
6 | B3 | – | – | pulled down a 55-kD protein now identified as pyruvate kinase M2 | –
